Test results as given in ChEMBL document CHEMBL1201862, “PubChem BioAssay data set” (2004).
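These data come from cells grown in 96-well plates and exposed to compound for 48 hours at five concentrations. GI50 = concentration required for 50% inhibition of growth.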 The source made the active and inactive calls. Rule as the data show it: active = GI50 up to about 1.1 µM and inactive = higher.

Experiments:
Experiment in all cases: inhibition of tumour cell growth, NCI panel, 48 h
DU-145 = system: DU-145
SNB-19 = system: SNB-19
SR = system: SR
KM12 = system: KM12
MDA-MB-231 = system: MDA-MB-231
HCC 2998 = system: HCC 2998
NCI-H23 = system: NCI-H23
HCT-15 = system: HCT-15
SNB-75 = system: SNB-75
NCI-H522 = system: NCI-H522
OVCAR-5 = system: OVCAR-5
NCI-H226 = system: NCI-H226
SK-MEL-5 = system: SK-MEL-5
A549 = system: A549
NCI-H460 = system: NCI-H460
SF-295 = system: SF-295
SF-539 = system: SF-539
UACC-257 = system: UACC-257
NCI/ADR-RES = system: NCI/ADR-RES
RXF 393 = system: RXF 393

Compound | GI50 (DU-145) | GI50 (SNB-19) | GI50 (SR) | GI50 (KM12) | GI50 (MDA-MB-231) | GI50 (HCC 2998) | GI50 (NCI-H23) | GI50 (HCT-15) | GI50 (SNB-75) | GI50 (NCI-H522) | GI50 (OVCAR-5) | GI50 (NCI-H226) | GI50 (SK-MEL-5) | GI50 (A549) | GI50 (NCI-H460) | GI50 (SF-295) | GI50 (SF-539) | GI50 (UACC-257) | GI50 (NCI/ADR-RES) | GI50 (RXF 393)
O=C(c1cccs1)N(Cc1cccnc1)C(=S)N(Cc1cccnc1)C(=O)c1cccs1 | > 100 µM (inactive) | 35.5 µM (inactive) | 7.82 µM (inactive) | 24.4 µM (inactive) | > 100 µM (inactive) | > 100 µM (inactive) | > 100 µM (inactive) | > 100 µM | 37.8 µM (inactive) | 36.5 µM (inactive) | > 100 µM (inactive) | > 100 µM (inactive) | > 100 µM (inactive) | > 100 µM (inactive) | > 100 µM (inactive) | 32.2 µM (inactive) | 29.9 µM (inactive) | > 100 µM (inactive) | > 100 µM (inactive) | > 100 µM (inactive)
COC(=O)c1cc(CC2Cc3cc4c(cc3C2)CCC4)cc2c1CCC2 | > 100 µM (inactive) | > 100 µM (inactive) | 29.5 µM (inactive) | 61.5 µM (inactive) | > 100 µM (inactive) | > 100 µM (inactive) | > 100 µM (inactive) | 67.5 µM | > 100 µM (inactive) | 57.4 µM (inactive) | > 100 µM (inactive) | > 100 µM (inactive) | 33.9 µM (inactive) | > 100 µM (inactive) | > 100 µM (inactive) | > 100 µM (inactive) | > 100 µM (inactive) | 37.2 µM (inactive) | > 100 µM (inactive) | 62.2 µM (inactive)
C=CCC(CNC(=O)OCc1ccccc1)O[Si](C)(C)C(C)(C)C (stereo not given) | 36.5 µM (inactive) | 40.3 µM (inactive) | 18.5 µM (inactive) | 34 µM (inactive) | 17.3 µM (inactive) | 39.5 µM (inactive) | 55.5 µM (inactive) | 35.9 µM | 59.3 µM (inactive) | 24.9 µM (inactive) | 26.3 µM (inactive) | 25.9 µM (inactive) | 16.6 µM (inactive) | 30.1 µM (inactive) | 25.6 µM (inactive) | 35.2 µM (inactive) | 28.5 µM (inactive) | 25.4 µM (inactive) | 36.9 µM (inactive) | 17.3 µM (inactive)
COc1cc(C=C2N=C(c3ccccc3)N(n3c(-c4ccccc4)nc4ccccc4c3=O)C2=O)cc(OC)c1OC | 27.6 µM (inactive) | 24.7 µM (inactive) | 40.7 µM (inactive) | 19.7 µM (inactive) | 21.9 µM (inactive) | 30.7 µM (inactive) | 19.1 µM (inactive) | 31.5 µM | 23.1 µM (inactive) | 20.1 µM (inactive) | 38.9 µM (inactive) | 25.6 µM (inactive) | 23.4 µM (inactive) | 36.9 µM (inactive) | 20.3 µM (inactive) | 19.5 µM (inactive) | 18.7 µM (inactive) | 20.1 µM (inactive) | 38.9 µM (inactive) | 12.1 µM (inactive)
CC(=N\N)/C(C)=N/N=C(C)/C(C)=N/N=C(C)/C(C)=N/N | > 100 µM (inactive) | > 100 µM (inactive) | > 100 µM (inactive) | > 100 µM (inactive) | > 100 µM (inactive) | > 100 µM (inactive) | > 100 µM (inactive) | > 100 µM | > 100 µM (inactive) | > 100 µM (inactive) | > 100 µM (inactive) | > 100 µM (inactive) | > 100 µM (inactive) | > 100 µM (inactive) | > 100 µM (inactive) | > 100 µM (inactive) | > 100 µM (inactive) | > 100 µM (inactive) | > 100 µM (inactive) | > 100 µM (inactive)
CC(=O)NC1C(OCc2ccccc2)OC(CO)C(O)C1OC(C)C(=O)NC(C)C(=O)NC(CCC(=O)NCCCNc1c2ccccc2nc2cccc([N+](=O)[O-])c12)C(N)=O (stereo not given) | 1.56 µM (inactive) | 3.67 µM (inactive) | 5.48 µM (inactive) | 2.57 µM (inactive) | 1.36 µM (inactive) | 1.14 µM (inactive) | 2.55 µM (inactive) | 1.67 µM | 1.99 µM (inactive) | 1.48 µM (inactive) | 2.24 µM (inactive) | 2.79 µM (inactive) | 1.01 µM (active) | 1.43 µM (inactive) | 0.258 µM (active) | 3.26 µM (inactive) | 3.86 µM (inactive) | 2 µM (inactive) | 4.09 µM (inactive) | 1.31 µM (inactive)
COc1ccccc1NC(=S)NN=C(C)c1cccc(C(C)=NNC(=S)Nc2ccccc2OC)n1 | 24 µM (inactive) | 77.4 µM (inactive) | 1.66 µM (inactive) | 26.1 µM (inactive) | 5.16 µM (inactive) | > 100 µM (inactive) | 33.9 µM (inactive) | 28.5 µM | 94.6 µM (inactive) | 45.6 µM (inactive) | > 100 µM (inactive) | 28.4 µM (inactive) | 3.94 µM (inactive) | 29.2 µM (inactive) | 24 µM (inactive) | 26.8 µM (inactive) | 19.9 µM (inactive) | 25.8 µM (inactive) | 10.4 µM (inactive) | 12.9 µM (inactive)
